In ChEMBL document CHEMBL1201862, “PubChem BioAssay data set” (2004):
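Five concentrations, 48 hours, 96-well plates. Abbreviation: GI50, concentration required for 50% inhibition of growth.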 Activity calls are given as the source filed them. Cut-off read from the data, not from the text of the source: active = GI50 up to about 1.1 µM and inactive = higher.

Columns and labels:
Experiment in all cases: inhibition of tumour cell growth, NCI panel, 48 h
SF-539 = system: SF-539
SK-MEL-5 = system: SK-MEL-5
IGROV-1 = system: IGROV-1
TK-10 = system: TK-10
NCI-H226 = system: NCI-H226
MOLT-4 = system: MOLT-4
SF-295 = system: SF-295
OVCAR-4 = system: OVCAR-4
CAKI-1 = system: CAKI-1
UO-31 = system: UO-31
Malme-3M = system: Malme-3M
U-251 = system: U-251
SW-620 = system: SW-620
A549 = system: A549
HCT-116 = system: HCT-116
SNB-75 = system: SNB-75
SK-MEL-2 = system: SK-MEL-2
LOX IMVI = system: LOX IMVI
OVCAR-5 = system: OVCAR-5
RPMI-8226 = system: RPMI-8226

## O=CCCn1[nH]c(=O)ccc1=O
SF-539
  GI50: > 100 µM (inactive)
SK-MEL-5
  GI50: > 100 µM (inactive)
IGROV-1
  GI50: > 100 µM (inactive)
TK-10
  GI50: > 100 µM (inactive)
NCI-H226
  GI50: > 100 µM (inactive)
MOLT-4
  GI50: > 100 µM (inactive)
SF-295
  GI50: > 100 µM (inactive)
OVCAR-4
  GI50: > 100 µM (inactive)
CAKI-1
  GI50: > 100 µM (inactive)
UO-31
  GI50: > 100 µM (inactive)
Malme-3M
  GI50: > 100 µM (inactive)
U-251
  GI50: > 100 µM (inactive)
SW-620
  GI50: > 100 µM (inactive)
A549
  GI50: > 100 µM (inactive)
HCT-116
  GI50: > 100 µM (inactive)
SNB-75
  GI50: > 100 µM (inactive)
SK-MEL-2
  GI50: > 100 µM (inactive)
LOX IMVI
  GI50: > 100 µM (inactive)
OVCAR-5
  GI50: > 100 µM (inactive)
RPMI-8226
  GI50: > 100 µM (inactive)

## C/C(=N\O)C1CC(CC(=O)O)C1(C)C (stereo unspecified)
SF-539
  GI50: > 100 µM (inactive)
SK-MEL-5
  GI50: > 100 µM (inactive)
IGROV-1
  GI50: > 100 µM (inactive)
TK-10
  GI50: > 100 µM (inactive)
NCI-H226
  GI50: > 100 µM (inactive)
MOLT-4
  GI50: > 100 µM (inactive)
SF-295
  GI50: > 100 µM (inactive)
OVCAR-4
  GI50: > 100 µM (inactive)
CAKI-1
  GI50: > 100 µM (inactive)
UO-31
  GI50: > 100 µM (inactive)
Malme-3M
  GI50: > 100 µM (inactive)
U-251
  GI50: > 100 µM (inactive)
SW-620
  GI50: > 100 µM (inactive)
A549
  GI50: > 100 µM (inactive)
HCT-116
  GI50: > 100 µM (inactive)
SNB-75
  GI50: > 100 µM (inactive)
SK-MEL-2
  GI50: > 100 µM (inactive)
LOX IMVI
  GI50: > 100 µM (inactive)
OVCAR-5
  GI50: > 100 µM (inactive)
RPMI-8226
  GI50: > 100 µM (inactive)

## COc1ccc(/C=C2\CC3C4CC=C5C[C@@H](O)CC[C@]5(C)C4CC[C@]3(C)\C2=N\O)cc1OC (stereo partly specified)
SF-539
  GI50: 7.26 µM (inactive)
SK-MEL-5
  GI50: 4.1 µM (inactive)
IGROV-1
  GI50: 38.8 µM (inactive)
TK-10
  GI50: 5.09 µM (inactive)
NCI-H226
  GI50: 7.28 µM (inactive)
MOLT-4
  GI50: 5.37 µM (inactive)
SF-295
  GI50: 4.13 µM (inactive)
OVCAR-4
  GI50: 5.02 µM (inactive)
CAKI-1
  GI50: 9.62 µM (inactive)
UO-31
  GI50: 2.65 µM (inactive)
Malme-3M
  GI50: 33.3 µM (inactive)
U-251
  GI50: 9.2 µM (inactive)
SW-620
  GI50: 43.4 µM (inactive)
A549
  GI50: 5.2 µM (inactive)
HCT-116
  GI50: 5.14 µM (inactive)
SNB-75
  GI50: 2.33 µM (inactive)
SK-MEL-2
  GI50: 7.57 µM (inactive)
LOX IMVI
  GI50: 6.92 µM (inactive)
OVCAR-5
  GI50: 16 µM (inactive)
RPMI-8226
  GI50: 7.24 µM (inactive)

## COC(=O)[C@@H](NC(=O)[C@H](N)Cc1ccc(N(CCCl)CCCl)cc1)C(C)C
SF-539
  GI50: 7.91 µM (inactive)
SK-MEL-5
  GI50: 1.78 µM (inactive)
IGROV-1
  GI50: 15.9 µM (inactive)
TK-10
  GI50: 22.4 µM (inactive)
NCI-H226
  GI50: 18.7 µM (inactive)
MOLT-4
  GI50: 0.0204 µM (active)
SF-295
  GI50: 18.7 µM (inactive)
OVCAR-4
  GI50: 13.1 µM (inactive)
CAKI-1
  GI50: 0.481 µM (active)
UO-31
  GI50: 12 µM (inactive)
Malme-3M
  GI50: 1.92 µM (inactive)
U-251
  GI50: 19.4 µM (inactive)
SW-620
  GI50: 11 µM (inactive)
A549
  GI50: 18.2 µM (inactive)
HCT-116
  GI50: 15 µM (inactive)
SNB-75
  GI50: 11.1 µM (inactive)
SK-MEL-2
  GI50: 28.9 µM (inactive)
LOX IMVI
  GI50: 5.97 µM (inactive)
OVCAR-5
  GI50: 36.5 µM (inactive)
RPMI-8226
  GI50: 5.3 µM (inactive)

## CSCC(CO)NC(=O)/C=C/c1c(C)[nH]c(=O)[nH]c1=O (stereo unspecified)
SF-539
  GI50: > 875 µM (inactive)
SK-MEL-5
  GI50: > 820 µM (inactive)
IGROV-1
  GI50: > 875 µM (inactive)
NCI-H226
  GI50: 752 µM (inactive)
MOLT-4
  GI50: 232 µM (inactive)
SF-295
  GI50: > 875 µM (inactive)
OVCAR-4
  GI50: 31.9 µM (inactive)
CAKI-1
  GI50: 91.8 µM (inactive)
UO-31
  GI50: 557 µM (inactive)
Malme-3M
  GI50: 307 µM (inactive)
U-251
  GI50: 462 µM (inactive)
SW-620
  GI50: 366 µM (inactive)
A549
  GI50: > 875 µM (inactive)
HCT-116
  GI50: 507 µM (inactive)
SNB-75
  GI50: 444 µM (inactive)
SK-MEL-2
  GI50: 597 µM (inactive)
LOX IMVI
  GI50: 457 µM (inactive)
OVCAR-5
  GI50: 352 µM (inactive)
RPMI-8226
  GI50: 661 µM (inactive)

## CCN1C(=O)C(=Cc2ccc(-c3ccccc3)cc2)C(=O)N(CC)C1=S
SF-539
  GI50: > 100 µM (inactive)
SK-MEL-5
  GI50: > 100 µM (inactive)
IGROV-1
  GI50: > 100 µM (inactive)
TK-10
  GI50: > 100 µM (inactive)
NCI-H226
  GI50: > 100 µM (inactive)
MOLT-4
  GI50: 30.3 µM (inactive)
SF-295
  GI50: > 100 µM (inactive)
OVCAR-4
  GI50: > 100 µM (inactive)
CAKI-1
  GI50: > 100 µM (inactive)
UO-31
  GI50: 79.4 µM (inactive)
Malme-3M
  GI50: > 100 µM (inactive)
U-251
  GI50: 75.2 µM (inactive)
SW-620
  GI50: > 100 µM (inactive)
A549
  GI50: > 100 µM (inactive)
HCT-116
  GI50: 97.3 µM (inactive)
SNB-75
  GI50: 71.8 µM (inactive)
SK-MEL-2
  GI50: > 100 µM (inactive)
LOX IMVI
  GI50: > 100 µM (inactive)
OVCAR-5
  GI50: > 100 µM (inactive)
RPMI-8226
  GI50: > 100 µM (inactive)

## N=c1c2c(=S)n(-c3ccccc3)c(=S)n(-c3ccccc3)c2nc(SCCCN2CCN(c3cccc(Cl)c3)CC2)n1-c1ccccc1
SF-539
  GI50: > 100 µM (inactive)
SK-MEL-5
  GI50: 92.7 µM (inactive)
IGROV-1
  GI50: 97.7 µM (inactive)
TK-10
  GI50: 37.5 µM (inactive)
NCI-H226
  GI50: 98.6 µM (inactive)
MOLT-4
  GI50: > 100 µM (inactive)
SF-295
  GI50: 45.4 µM (inactive)
OVCAR-4
  GI50: > 100 µM (inactive)
CAKI-1
  GI50: 84.3 µM (inactive)
Malme-3M
  GI50: > 100 µM (inactive)
U-251
  GI50: > 100 µM (inactive)
SW-620
  GI50: > 100 µM (inactive)
SNB-75
  GI50: 78.5 µM (inactive)
SK-MEL-2
  GI50: 62.8 µM (inactive)
LOX IMVI
  GI50: 26.5 µM (inactive)
OVCAR-5
  GI50: 26.4 µM (inactive)
RPMI-8226
  GI50: > 100 µM (inactive)
